Test results published in patent publication US9062124B2, “GIP-based mixed agonists for treatment of metabolic disorders and obesity” (priority 2008, dated 2015).
Where a SMILES comes first, the peptide text is derived from it. [ ]: non-standard residue; d: D form. The star is where a group is joined. Myristoyl = CCCCCCCCCCCCCC(=O)*; Aib = CC(C)(N)C(=O)O

How the values were obtained:
Type in all cases: cell-based
glucagon receptor = biological target: T1, glucagon receptor (Homo sapiens, UniProt P47871); test: cAMP synthesis functional assay (firefly luciferase reporter in HEK293 cells), glucagon receptor; conditions: for EC50: Glucagon Receptor EC50, cAMP luciferase reporter assay as in Example 16
T1 construct: expressed in transfected cells; host or cells: HEK293
T1 sequence (P47871 26-477): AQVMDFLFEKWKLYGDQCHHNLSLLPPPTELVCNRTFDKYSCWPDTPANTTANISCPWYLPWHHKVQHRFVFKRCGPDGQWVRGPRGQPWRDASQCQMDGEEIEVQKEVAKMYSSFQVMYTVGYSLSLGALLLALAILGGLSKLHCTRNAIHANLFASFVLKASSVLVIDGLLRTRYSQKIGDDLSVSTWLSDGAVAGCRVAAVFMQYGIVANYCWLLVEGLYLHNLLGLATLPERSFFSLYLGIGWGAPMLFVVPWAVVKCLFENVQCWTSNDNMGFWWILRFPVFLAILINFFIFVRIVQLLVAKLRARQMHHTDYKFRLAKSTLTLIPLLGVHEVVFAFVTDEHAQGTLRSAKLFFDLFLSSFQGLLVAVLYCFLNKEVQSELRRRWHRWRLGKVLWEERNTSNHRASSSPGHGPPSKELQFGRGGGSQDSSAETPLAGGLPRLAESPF

GLP-1 receptor = biological target: T2, GLP-1 receptor (Homo sapiens, UniProt P43220); test: cAMP synthesis functional assay (firefly luciferase reporter in HEK293 cells), GLP-1 receptor; conditions: for EC50: GLP-1 Receptor EC50, cAMP luciferase reporter assay as in Example 16
T2 construct: expressed in transfected cells; host or cells: HEK293
T2 sequence (P43220 24-463, species assumed): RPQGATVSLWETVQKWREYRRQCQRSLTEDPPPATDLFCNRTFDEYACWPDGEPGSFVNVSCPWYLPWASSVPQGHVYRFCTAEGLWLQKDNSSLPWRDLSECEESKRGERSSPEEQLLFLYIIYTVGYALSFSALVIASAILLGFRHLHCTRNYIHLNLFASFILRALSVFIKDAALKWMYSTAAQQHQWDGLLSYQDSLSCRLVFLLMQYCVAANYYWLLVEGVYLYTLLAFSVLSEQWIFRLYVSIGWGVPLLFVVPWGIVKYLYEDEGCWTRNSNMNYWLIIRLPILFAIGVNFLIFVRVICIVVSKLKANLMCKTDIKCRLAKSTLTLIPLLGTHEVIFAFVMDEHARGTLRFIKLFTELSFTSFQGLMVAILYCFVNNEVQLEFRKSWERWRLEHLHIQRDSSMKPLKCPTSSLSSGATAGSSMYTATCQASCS

GIP receptor = biological target: T3, GIP receptor (Homo sapiens, UniProt P48546); test: cAMP synthesis functional assay (firefly luciferase reporter in HEK293 cells), GIP receptor; conditions: for EC50: GIP Receptor EC50, cAMP luciferase reporter assay as in Example 16
T3 construct: expressed in transfected cells; host or cells: HEK293
T3 sequence (P48546 22-466): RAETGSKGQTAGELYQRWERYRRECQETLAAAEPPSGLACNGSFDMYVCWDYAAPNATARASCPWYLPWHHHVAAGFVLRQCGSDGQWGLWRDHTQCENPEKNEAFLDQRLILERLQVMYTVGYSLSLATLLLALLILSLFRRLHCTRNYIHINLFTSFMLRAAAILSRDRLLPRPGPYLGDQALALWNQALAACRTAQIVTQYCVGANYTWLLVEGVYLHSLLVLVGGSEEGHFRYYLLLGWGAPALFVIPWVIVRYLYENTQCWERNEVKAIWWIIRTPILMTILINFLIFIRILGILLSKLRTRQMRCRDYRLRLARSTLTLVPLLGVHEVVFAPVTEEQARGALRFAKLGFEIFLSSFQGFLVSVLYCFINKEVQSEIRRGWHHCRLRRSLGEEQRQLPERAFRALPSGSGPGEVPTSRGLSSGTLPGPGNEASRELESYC

[1] = relative to the standard (Std.) EC50 of the same run
[2] = Table 4, relative to the native hormone

CCCCCCCCCCCCCC(=O)NCCCC[C@@H](NC(=O)[C@H](CO)NC(=O)[C@@H]1CCCN1C(=O)[C@@H]1CCCN1C(=O)[C@@H]1CCCN1C(=O)[C@H](C)NC(=O)CNC(=O)[C@H](CO)NC(=O)[C@H](CO)NC(=O)[C@@H]1CCCN1C(=O)CNC(=O)CNC(=O)[C@H](C)NC(=O)[C@H](CC(C)C)NC(=O)[C@H](CC(C)C)NC(=O)[C@H](Cc1c[nH]c2ccccc12)NC(=O)[C@H](CS)NC(=O)[C@@H](NC(=O)[C@H](Cc1ccccc1)NC(=O)[C@H](CCC(=O)O)NC(=O)C(C)(C)NC(=O)[C@H](C)NC(=O)[C@H](C)NC(=O)[C@H](CCC(N)=O)NC(=O)[C@H](CCCCN)NC(=O)[C@H](CC(=O)O)NC(=O)[C@H](CC(C)C)NC(=O)[C@H](Cc1ccc(O)cc1)NC(=O)[C@@H](NC(=O)[C@H](CO)NC(=O)[C@H](Cc1ccc(O)cc1)NC(=O)[C@H](CC(=O)O)NC(=O)[C@H](CO)NC(=O)[C@@H](NC(=O)[C@H](Cc1ccccc1)NC(=O)[C@@H](NC(=O)CNC(=O)[C@H](CCC(=O)O)NC(=O)C(C)(C)NC(=O)[C@@H](N)Cc1ccc(O)cc1)[C@@H](C)O)[C@@H](C)O)[C@@H](C)CC)C(C)C)C(N)=O [mt-333]
EC50 (glucagon receptor): 690 pM | Glucagon Receptor relative activity (glucagon receptor; [1]): 2.80% | EC50 (GLP-1 receptor): 2.8 pM | GLP-1 Receptor relative activity (GLP-1 receptor; [1]): 85.71% | EC50 (GIP receptor): 3.4 pM | GIP Receptor relative activity (GIP receptor; [1]): 226.47%

CC[C@H](C)[C@H](NC(=O)[C@H](CO)NC(=O)[C@H](Cc1ccc(O)cc1)NC(=O)[C@H](CC(=O)O)NC(=O)[C@H](CO)NC(=O)[C@@H](NC(=O)[C@H](Cc1ccccc1)NC(=O)[C@@H](NC(=O)CNC(=O)[C@H](CCC(=O)O)NC(=O)C(C)(C)NC(=O)[C@@H](N)Cc1ccc(O)cc1)[C@@H](C)O)[C@@H](C)O)C(=O)N[C@@H](Cc1ccc(O)cc1)C(=O)N[C@@H](CC(C)C)C(=O)N[C@@H](CC(=O)O)C(=O)N[C@@H](CCCCN)C(=O)N[C@@H](CCC(N)=O)C(=O)N[C@@H](C)C(=O)N[C@@H](C)C(=O)NC(C)(C)C(=O)N[C@@H](CCC(=O)O)C(=O)N[C@@H](Cc1ccccc1)C(=O)N[C@H](C(=O)N[C@@H](CS)C(=O)N[C@@H](Cc1c[nH]c2ccccc12)C(=O)N[C@@H](CC(C)C)C(=O)N[C@@H](CC(C)C)C(=O)N[C@@H](C)C(=O)NCC(=O)NCC(=O)N1CCC[C@H]1C(=O)N[C@@H](CO)C(=O)N[C@@H](CO)C(=O)NCC(=O)N[C@@H](C)C(=O)N1CCC[C@H]1C(=O)N1CCC[C@H]1C(=O)N1CCC[C@H]1C(=O)N[C@@H](CO)C(=O)N[C@H](CCCCN)C(N)=O)C(C)C [mt-334]
EC50 (glucagon receptor): 7070 pM | Glucagon Receptor relative activity (glucagon receptor; [1]): 0.27% | EC50 (GLP-1 receptor): 3.4 pM | GLP-1 Receptor relative activity (GLP-1 receptor; [1]): 70.59% | EC50 (GIP receptor): 4.1 pM | GIP Receptor relative activity (GIP receptor; [1]): 187.80%

CCCCCCCCCCCCCC(=O)NCCCC[C@H](NC(=O)[C@H](CC(=O)O)NC(=O)[C@H](CO)NC(=O)[C@@H](NC(=O)[C@H](Cc1ccccc1)NC(=O)[C@@H](NC(=O)CNC(=O)[C@H](CCC(=O)O)NC(=O)C(C)(C)NC(=O)[C@@H](N)Cc1ccc(O)cc1)[C@@H](C)O)[C@@H](C)O)C(=O)N[C@@H](CO)C(=O)N[C@H](C(=O)N[C@@H](Cc1ccc(O)cc1)C(=O)N[C@@H](CC(C)C)C(=O)N[C@@H](CC(=O)O)C(=O)N[C@@H](CCCCN)C(=O)N[C@@H](CCC(N)=O)C(=O)N[C@@H](C)C(=O)N[C@@H](C)C(=O)NC(C)(C)C(=O)N[C@@H](CCC(=O)O)C(=O)N[C@@H](Cc1ccccc1)C(=O)N[C@H](C(=O)N[C@@H](CS)C(=O)N[C@@H](Cc1c[nH]c2ccccc12)C(=O)N[C@@H](CC(C)C)C(=O)N[C@@H](CC(C)C)C(=O)N[C@@H](C)C(=O)NCC(=O)NCC(=O)N1CCC[C@H]1C(=O)N[C@@H](CO)C(=O)N[C@@H](CO)C(=O)NCC(=O)N[C@@H](C)C(=O)N1CCC[C@H]1C(=O)N1CCC[C@H]1C(=O)N1CCC[C@H]1C(=O)N[C@@H](CO)C(N)=O)C(C)C)[C@@H](C)CC [mt-337] (H-Y[Aib]EGTFTSDK(Myristoyl)SIYLDKQAA[Aib]EFVCWLLAGGPSSGAPPPS-NH2; N-terminus assumed)
Glucagon Receptor relative activity (glucagon receptor; [1]): 0.02% | EC50 (GLP-1 receptor): 8.2 pM | GLP-1 Receptor relative activity (GLP-1 receptor; [1]): 74.39% | EC50 (GIP receptor): 8 pM | GIP Receptor relative activity (GIP receptor; [1]): 115.00%

CC[C@H](C)[C@H](NC(=O)[C@H](CO)NC(=O)[C@H](CCCCN)NC(=O)[C@H](CC(=O)O)NC(=O)[C@H](CO)NC(=O)[C@@H](NC(=O)[C@H](Cc1ccccc1)NC(=O)[C@@H](NC(=O)CNC(=O)[C@H](CCC(=O)O)NC(=O)C(C)(C)NC(=O)[C@@H](N)Cc1ccc(O)cc1)[C@@H](C)O)[C@@H](C)O)C(=O)N[C@@H](Cc1ccc(O)cc1)C(=O)N[C@@H](CC(C)C)C(=O)N[C@@H](CC(=O)O)C(=O)N[C@@H](CCCCN)C(=O)N[C@@H](CCC(N)=O)C(=O)N[C@@H](C)C(=O)N[C@@H](C)C(=O)NC(C)(C)C(=O)N[C@@H](CCC(=O)O)C(=O)N[C@@H](Cc1ccccc1)C(=O)N[C@H](C(=O)N[C@@H](CS)C(=O)N[C@@H](Cc1c[nH]c2ccccc12)C(=O)N[C@@H](CC(C)C)C(=O)N[C@@H](CC(C)C)C(=O)N[C@@H](C)C(=O)NCC(=O)NCC(=O)N1CCC[C@H]1C(=O)N[C@@H](CO)C(=O)N[C@@H](CO)C(=O)NCC(=O)N[C@@H](C)C(=O)N1CCC[C@H]1C(=O)N1CCC[C@H]1C(=O)N1CCC[C@H]1C(=O)N[C@@H](CO)C(N)=O)C(C)C [mt-338] (H-Y[Aib]EGTFTSDKSIYLDKQAA[Aib]EFVCWLLAGGPSSGAPPPS-NH2; N-terminus assumed)
Glucagon Receptor relative activity (glucagon receptor; [1]): 0.01% | EC50 (GLP-1 receptor): 226 pM | GLP-1 Receptor relative activity (GLP-1 receptor; [1]): 2.70% | EC50 (GIP receptor): 23.4 pM | GIP Receptor relative activity (GIP receptor; [1]): 39.32%

CCCCCCCCCCCCCC(=O)NCCCC[C@H](NC(=O)[C@H](CO)NC(=O)[C@@H]1CCCN1C(=O)[C@@H]1CCCN1C(=O)[C@@H]1CCCN1C(=O)[C@H](C)NC(=O)CNC(=O)[C@H](CO)NC(=O)[C@H](CO)NC(=O)[C@@H]1CCCN1C(=O)CNC(=O)CNC(=O)[C@H](C)NC(=O)[C@H](CC(C)C)NC(=O)[C@H](CC(C)C)NC(=O)[C@H](Cc1c[nH]c2ccccc12)NC(=O)[C@H](CC(N)=O)NC(=O)[C@@H](NC(=O)[C@H](Cc1ccccc1)NC(=O)[C@H](CCC(=O)O)NC(=O)C(C)(C)NC(=O)[C@H](C)NC(=O)[C@H](C)NC(=O)[C@H](CCC(N)=O)NC(=O)[C@H](CCCCN)NC(=O)[C@H](CC(=O)O)NC(=O)[C@H](CC(C)C)NC(=O)[C@H](Cc1ccc(O)cc1)NC(=O)[C@@H](NC(=O)[C@H](CO)NC(=O)[C@H](Cc1ccc(O)cc1)NC(=O)[C@H](CC(=O)O)NC(=O)[C@H](CO)NC(=O)[C@@H](NC(=O)[C@H](Cc1ccccc1)NC(=O)[C@@H](NC(=O)CNC(=O)[C@H](CCC(=O)O)NC(=O)C(C)(C)NC(=O)[C@@H](N)Cc1ccc(O)cc1)[C@@H](C)O)[C@@H](C)O)[C@@H](C)CC)C(C)C)C(=O)N[C@@H](CS)C(N)=O [mt-339]
Glucagon Receptor relative activity (glucagon receptor; [1]): 0.28% | GLP-1 Receptor relative activity (GLP-1 receptor; [1]): 66.30% | GIP Receptor relative activity (GIP receptor; [1]): 230.00%

CC[C@H](C)[C@H](NC(=O)[C@H](CO)NC(=O)[C@H](Cc1ccc(O)cc1)NC(=O)[C@H](CC(=O)O)NC(=O)[C@H](CO)NC(=O)[C@@H](NC(=O)[C@H](Cc1ccccc1)NC(=O)[C@@H](NC(=O)CNC(=O)[C@H](CCC(=O)O)NC(=O)C(C)(C)NC(=O)[C@@H](N)Cc1ccc(O)cc1)[C@@H](C)O)[C@@H](C)O)C(=O)N[C@@H](Cc1ccc(O)cc1)C(=O)N[C@@H](CC(C)C)C(=O)N[C@@H](CC(=O)O)C(=O)N[C@@H](CCCCN)C(=O)N[C@@H](CCC(N)=O)C(=O)N[C@@H](C)C(=O)N[C@@H](C)C(=O)NC(C)(C)C(=O)N[C@@H](CCC(=O)O)C(=O)N[C@@H](Cc1ccccc1)C(=O)N[C@H](C(=O)N[C@@H](CC(N)=O)C(=O)N[C@@H](Cc1c[nH]c2ccccc12)C(=O)N[C@@H](CC(C)C)C(=O)N[C@@H](CC(C)C)C(=O)N[C@@H](C)C(=O)NCC(=O)NCC(=O)N1CCC[C@H]1C(=O)N[C@@H](CO)C(=O)N[C@@H](CO)C(=O)NCC(=O)N[C@@H](C)C(=O)N1CCC[C@H]1C(=O)N1CCC[C@H]1C(=O)N1CCC[C@H]1C(=O)N[C@@H](CO)C(=O)N[C@@H](CCCCN)C(=O)N[C@@H](CS)C(N)=O)C(C)C [mt-340]
Glucagon Receptor relative activity (glucagon receptor; [1]): 0.24% | GLP-1 Receptor relative activity (GLP-1 receptor; [1]): 100.00% | EC50 (GIP receptor): 2.8 pM | GIP Receptor relative activity (GIP receptor; [1]): 328.57%

CC[C@H](C)[C@H](NC(=O)[C@H](CO)NC(=O)[C@H](Cc1ccc(O)cc1)NC(=O)[C@H](CC(=O)O)NC(=O)[C@H](CO)NC(=O)[C@@H](NC(=O)[C@H](Cc1ccccc1)NC(=O)[C@@H](NC(=O)CNC(=O)[C@H](CCC(N)=O)NC(=O)C(C)(C)NC(=O)[C@@H](N)Cc1ccc(O)cc1)[C@@H](C)O)[C@@H](C)O)C(=O)N[C@@H](Cc1ccc(O)cc1)C(=O)N[C@@H](CC(C)C)C(=O)N[C@@H](CC(=O)O)C(=O)N[C@@H](CCCCN)C(=O)N[C@@H](CCC(N)=O)C(=O)N[C@@H](C)C(=O)N[C@@H](C)C(=O)NC(C)(C)C(=O)N[C@@H](CCC(=O)O)C(=O)N[C@@H](Cc1ccccc1)C(=O)N[C@H](C(=O)N[C@@H](CC(N)=O)C(=O)N[C@@H](Cc1c[nH]c2ccccc12)C(=O)N[C@@H](CC(C)C)C(=O)N[C@@H](CCSC)C(=O)N[C@@H](CC(N)=O)C(=O)NCC(=O)NCC(=O)N1CCC[C@H]1C(=O)N[C@@H](CO)C(=O)N[C@@H](CO)C(=O)NCC(=O)N[C@@H](C)C(=O)N1CCC[C@H]1C(=O)N1CCC[C@H]1C(=O)N1CCC[C@H]1C(=O)N[C@@H](CO)C(=O)N[C@@H](CCCCN)C(N)=O)C(C)C [mt-356] (H-Y[Aib]QGTFTSDYSIYLDKQAA[Aib]EFVNWLMNGGPSSGAPPPSK-NH2; N-terminus assumed)
Glucagon Receptor relative activity (glucagon receptor; [2]): 126.06% | GLP-1 Receptor relative activity (GLP-1 receptor; [2]): 224.02% | GIP Receptor relative activity (GIP receptor; [2]): 25.66%
